Laboratory results as given in patent US5334593A, “Anxiolytic drugs” (Yamasa Shoyu Kabushiki Kaisha, priority 1990, dated 1994).

What was measured:
male ICR mice [1] = assay: Anti-conflict activity (Vogel type conflict test); type: in vivo, mouse (ICR); conditions: for number of water-drinking: 10 minutes
Experimental: The method is described below.
Male ICR mice (6 weeks old) were deprived of water for one day before the test. The mice were then individually placed in the test box, and given water ad libitum for 10 minutes. Thereafter, they were placed back in their home cages, given water ad libitum overnight, and again deprived of water for two days. The mice thus treated were used for the measurement.
ABU, the test compound, was suspended in physiological saline containing 0.5% CMC, and the suspension was administered intraperitoneally to the above mice. .On the other hand, as a positive control compound, DZP was administered in the same manner. Fifteen minutes after the administration,the mice were placed in the test box, and allowed to freely drink one count of water (one drop: approximately 40 ul ). Thereafter, a 50 V electric foot shock was given from the grid floor to the mice every time they drunk one count of water. Under such conditions, the number of water-drinking was counted over a period of 10 minutes. The number of water-drinking performed by a group of mice to which the test compound was administered was compared with that of water-drinking performed by a group of mice to which a vehicle (physiological saline containing 0.5% CMC and no test compound) was administered.
The significant difference was ascertained by the Mann-Whitney's U-test.

male Wistar rats = assay: Anti-conflict activity (Geller type conflict test); type: in vivo, rat (Wistar); conditions: for number of lever pressing during the alarm periods / number of lever pressing during the safety periods: one hour, vs control; for minimal effective dose: Rattus norvegicus, oral, from results of Test Example 1, read-out: Minimum Effective Dose for Anti-Conflict Activity [B]
Experimental: The activities of the test compounds were evaluated by the Geller type conflict test which is frequently employed as a preclinical evaluation method of an anxiolytic drug [see Psychophamacologia, 1, 482-492 (1960 )]. The method is described below.
1-Amino--5--chlorouracil (ACU) , 1-amino-5-bromouracil (ABU) and 1-amino-5-fluorouracil (AFU) were used as the test compounds. These compounds were respectively suspended in distilled water containing 0 . 5% carboxymethyl cellulose (CMC) to obtain suspensions suitable for oral administration. In addition, diazepam (DZP) serving as a positive control compound was also prepared as a suspension suitable for oral administration in the same manner.
A skinner box (manufactured by OHARA & Co. , Ltd. ) used for the test was equipped with a lever, a light and a buzzer, and its floor was a grid made of stainless steel. When the lever was pressed, pellets (food) were supplied from a feeder, and, if necessary, an electric shock was given from the floor.
Male Wistar rats were deprived of food during the night to restrain an increase in the body weight, and a training of the animals was started. After the number of lever pressing performed by the rats reached the predetermined level by following a reinforcement schedule in which food pellets were supplied once every ten times of lever pressing (FR-10) , two periods, that is, a 7-minute safety period and a 3-minute alarm period were alternately incorporated in the schedule - During the alarm period, the rats were signaled by the light and buzzer, and further by an electric shock given from the floor every time they were supplied with food pellets. Those rats which were trained to press the lever 19 times or less during the alarm period were used for the measurement. Immediately after a suspension of a test compound prepared in the above-described manner was administered orally to the rats, they were placed in the skinner box, and the numbers of lever pressing were counted over a period of one hour. The numbers thus obtained were compared with those obtained by the control wherein distilled water containing 0.5% CMC and no test compound was orally administered to the rats and the number of lever pressing was counted for one hour. The significant difference was ascertained by the Wilcoxoh's signed rank test. The results are shown in FIG. 1A, FIG. 1B, FIG. 1C, FIG. 2A and FIG. 2B.
To the rats used for the above test, no drugs were administered for one week, and then they were repeatedly used for the same test.
Further, the minimum effective dose (B) for anti-conflict activity of each of the above-described test compounds was determined on the basis of the results obtained in Test Example 1.

male ICR mice [2] = assay: Muscle relaxant activity (rotated wire screen test); conditions: muscle relaxant ED50 / minimum effective dose for anti-conflict activity
Experimental: (§1) The muscle relaxant activities of the test compounds, 1-amino-5-bromouracil(ABU), 1-amino--5-chlorouracil (ACU) and diazepam (DZP), were determined in accordance with the method of L. L. Coughenour et al. [see Pharmacol. Biochem. & Behav., 6, 351-353 (1977)].
(§2) Male ICR mice were placed on a 13 cm×13 cm No. 4 wire screen, and the screen was then rotated by 180 degrees. Those mice which were able to return to the screen within one minute were referred to "successful" mice. The suspension of each test compound prepared in the same manner as in Test Example 1 was administered orally to the mice. The mice were then subjected to the above test. The dose of the test compound at which 50% of the mice successfully returned to the screen was determined as ED50 (A).
(§3) Furthermore, the validity of each of the test compounds as an anxiolytic drug was expressed as A/B value.

in vivo = conditions: mouse, in vivo, po
Experimental: as §1, §2, §3

[3] = Acute toxicity (oral administration); conditions: mouse, in vivo, male ICR mice, Litchfield-Wilcoxon method
Experimental: The acute toxicity (LD50 value) per oral administration was determined by the following method.
The test compound (1-amino-5-bromouracil (ABU) or 1-amino-5-chlorouracil (ACU) was suspended in distilled water containing 0.5% carboxymethyl cellulose (CMC). ABU or ACU was administered orally to male ICR mice (1 group: 10 mice) in a dose of 1000-2800 mg/kg or 500-1400 mg/kg, and the LD50 values were determined according to the Litchfield-Wilcoxon method. The results are shown in Table 2.

ICR mice = assay: Acute toxicity (intraperitoneal administration); type: in vivo, mouse (ICR); conditions: one week
Experimental: 1-Amino-5-bromouracil (ABU) was suspended in physiological saline containing 0.5% carboxymethyl cellulose (CMC). ABU was administered intraperitoneally to 8 ICR mice in a dose of 500 mg/kg, and their lethality was observed over a period of one week.
Further, 1-amino-5-chlorouracil (ACU) was administered intraperitoneally to 10 male ICR mice in a dose of 357 mg/kg, and their lethality was observed over a period of one week.

[4] = cited from earlier work

For `Nn1cc(Br)c(=O)[nH]c1=O` [ABU, 1-amino-5-bromouracil], the “sensitivity to an electric shock” value (male ICR mice [1]; 20 mg/kg i.p.) was “no decrease in the sensitivity to an electric shock was noted”, the number of water-drinking (male ICR mice [1]; ABU 5, 10, 20 and 50 mg/kg i.p., significant only at 20 mg/kg) was “a significant increase in the number of water-drinking was noted only at the dose of 20 mg/kg” and the “number of lever pressing during the alarm periods” value (male Wistar rats; 10 mg/kg oral) was “significantly increased”. The “number of lever pressing during the safety periods” value (male Wistar rats; 10 mg/kg oral) was “did not significantly change”, the “number of lever pressing during the alarm periods” value (male Wistar rats; 30 mg/kg oral) was “significantly increased” and the “number of lever pressing during the safety periods” value (male Wistar rats; 30 mg/kg oral) was “did not significantly change”. The “number of lever pressing during the alarm periods” value (male Wistar rats; 50 mg/kg oral) was “significantly increased”, the “number of lever pressing during the safety periods” value (male Wistar rats; 50 mg/kg oral) was “did not significantly change” and the minimal effective dose (male Wistar rats) was 10 mg/kg. For the same compound, the “Validity [A/B]” value (male ICR mice [2]) was 7.4, the ED50 (in vivo) was 74.1 mg/kg and the LD50 [3] was 1920 mg/kg. The lethality (ICR mice; 500 mg/kg i.p., 8 ICR mice) was “no death was observed”.
In the case of `Nn1cc(Cl)c(=O)[nH]c1=O` [ACU, 1-Amino--5--chlorouracil], the “number of lever pressing during the alarm periods” value (male Wistar rats; 20 mg/kg oral) is reported as “significantly increased”, the “number of lever pressing during the safety periods” value (male Wistar rats; 20 mg/kg oral) is reported as “did not significantly change” and the “number of lever pressing during the alarm periods” value (male Wistar rats; 30 mg/kg oral) is reported as “significantly increased”. For the same compound, the “number of lever pressing during the safety periods” value (male Wistar rats; 30 mg/kg oral) was “did not significantly change”, the minimal effective dose (male Wistar rats) was 20 mg/kg and the “Validity [A/B]” value (male ICR mice [2]) was 2.3. The ED50 (in vivo) was 46 mg/kg, the LD50 [3] was 971 mg/kg and the lethality (ICR mice; 357 mg/kg i.p., 10 male ICR mice) was “no death was observed”.
In the case of `Nn1cc(F)c(=O)[nH]c1=O` [AFU, 1-amino-5-fluorouracil], the “number of lever pressing during the alarm periods” value (male Wistar rats; 20 mg/kg oral) is reported as “significantly increased” and the “number of lever pressing during the safety periods” value (male Wistar rats; 20 mg/kg oral) is reported as “did not significantly change”.
With `CN1C(=O)CN=C(c2ccccc2)c2cc(Cl)ccc21` [DZP, diazepam, reference compound] the “behaviors of the mice when receiving an electric shock” value (male ICR mice [1]; 2 mg/kg i.p.) was “lack of both vocalization and escape behavior”, the “sensitivity of the mice to an electric shock” value (male ICR mice [1]; 2 mg/kg i.p.) was “decreased” and the number of water-drinking (male ICR mice [1]; 2 mg/kg i.p.) was “significantly increased”. For the same compound, the “number of lever pressing during the alarm periods” value (male Wistar rats; 5 mg/kg oral) was “significantly increased”, the “number of lever pressing during the alarm periods” value (male Wistar rats; 10 mg/kg oral) was “significantly increased” and the “number of lever pressing during the alarm periods” value (male Wistar rats; 20 mg/kg oral) was “significantly increased”. The “number of lever pressing during the safety periods” value (male Wistar rats; 20 mg/kg oral) was “significantly decreased”, the “number of lever pressing during the safety periods” value (male Wistar rats; 50 mg/kg oral) was “significantly decreased” and the minimal effective dose (male Wistar rats) was 5 mg/kg. For the same compound, the “Validity [A/B]” value (male ICR mice [2]) was 1.8 and the ED50 (in vivo) was 8.8 mg/kg.
For `CCC(C)n1c(=O)[nH]c(C)c(Br)c1=O` (stereo not shown) [bromacil], the “minimum effective dose for single administration” value ([4]; oral, single administration) is given as 100 mg/kg and the anxiolytic activity ([4]; orally administered) is given as “low anxiolytic activity”.
